Test results as given in patent publication EP3050886A1, “Fluorescent dyes and dye precursors” (Bürkert Werke GmbH, priority 2015, dated 2016).

Experiments:
E. coli (ATCC 8739) [1] = experiment: Labeling of viable or dead E. coli, fluorescence microscopy; assay type: cell-based, Escherichia coli; details: 15 µM, 30 min at 37 °C, Figure 4
Protocol: (§1) Escherichia coli (E. coli) (ATCC 8739) and Bacillus subtilis (B. subtilis) (ATCC 6633) strains were routinely grown in Luria Bertani (LB) broth or on LB agar plates for 18h at 37 °C. Waterborne environmental bacteria such as Enterobacter cloacae (E. cloacae), Chryseobacterium indologenes (C. indologenes), Pseudomonas aeruginosa (P. aeruginosa), and E. coli (EC18) were purchased from Eurofins™. Environmental bacteria were grown in LB broth or on casein-peptone soymeal-peptone agar plates for 18h at 37 °C.
(§2) For the staining tests, E. coli (ATCC 8739 or EC18), E. cloacae, C. indologenes, P. aeruginosa and B. subtilis were cultivated in Luria-Bertani (LB) broth until exponential phase at 37°C with shaking at 300 rpm revolutions per minutes (rpm). Bacteria were harvested and washed in sterile phosphate buffer saline solution (PBS) at pH […] by centrifugation at 10000 rpm for 3 min at room temperature (21 ± 2 °C). Then the bacteria were resuspended in PBS at a concentration of 1·10^9 bacteria/ml. Bacteria concentration was calculated according to the turbidity measure at 660 nm (A660nm=1 correspond to bacterial suspension at ∼ 5·10^8 bacteria/ ml).
(§3) Dead bacterial suspensions at 1·10^9 bacteria/ml (negative controls) of these five species of bacteria were prepared individually by addition of 20 µl of bleach containing 2.6 % active chlorine. Bacteria were treated with bleach solution for 15 min. Dead bacteria were washed twice in sterile PBS by centrifugation at 10000 rpm for 3 min at room temperature. The culturability of the negative controls was assessed by plating 100 µl of bacterial suspension onto LB agar or Caso agar and incubating the plates at 37 °C for 72 h.
(§4) Bacteria (100 µl suspension at 1·10^9 bacteria/ml) were stained with 10 µM or 15 µM of pro-fluorophore (5-CFDA, 5-PFDAE, 5-PFDAT, 5-PFDA, 5-COGDA, 5-POGDA or 5-POGAM) in 200 µl of PBS solution containing 0.6 % of glutaraldehyde. Bacteria were incubated at 37 °C for 10 - 60 min with pro-fluorophore in darkness. After bacterial staining, they were washed and resuspended in 100 µl of PBS as described above.
(§5) Staining of the bacterial suspension was observed under a fluorescent microscope. These bacteria were imaged with a Leica DM5500 microscope equipped with FITC filter. […] Images were collected with a 100x objective. Fluorescence intensity of stained bacterial suspension was also measured with FluoroLog®-3 (Horiba Jobin Yvon) spectrofluorometer equipped with sample stirring. Samples were placed in fluorescence grade quartz cuvette having a volume of 1 ml. The excitation wavelength used was 488 nm and emission wavelength used was 517 nm. The same experiment was repeated three times (n = 3).
The pro-fluorophores according to the present invention are preferably used to label E. coli cells. Viable or dead E. coli (ATCC 8739) are incubated with these fluorophores and commercial 5-CFDA as described above. […] Glutaraldehyde is added to the incubation solutions to improve the retention of the fluorophores in bacteria.
Bacteria were washed before being imaged with a Leica DM5500 microscope, 100x objective. Scale bars indicate 10 µm.

[2] = Fluorometric measurements / quantum yield; assay type: physicochemical; details: for Φ (quantum yield): 1 µM in 0.1 M NaOH at pH 12.7, excitation 488 nm, standard fluorescein, n = 3; for λem / λex: 0.1 M NaOH at pH 12.7
Protocol: Fluorometric measurements were made using fluorescence grade quartz cuvette and FluoroLog®-3 spectrofluorometer from Horiba Jobin Yvon equipped with sample stirring. The quantum yields (QY) of 5-CF, 5-COG, 5-POG and 5-PFA were measured with samples at 1 µM (absorbance 488 nm ≤ 0.2) in 0.1 M NaOH at pH 12.7. Every sample and the standard (fluorescein) was prepared freshly before use. In this study, fluorescein in 0.1 M NaOH at pH 12.7 was the reference system with a known quantum yield (Φ = 0.925).
Quantum yield measurements were done using standard absorption and emission spectrometers. Emission spectra range was between the wavelengths 498 - 600 nm and excitation wavelength was 488 nm for the samples and fluorescein. The refractive indices of the samples and fluorescein solutions were the same since they were prepared in the same buffer. Under these conditions, quantum yields were calculated by using the equation: Φ^i = (F^ifs/F^sfi)*Φ^s [formula]
wherein Φ^i and Φ^s are the photoluminescence QY of the sample and standard (fluorescein), respectively; F^i and F^s are the integrated intensities (areas) of sample and fluorescein spectra, respectively; and fi and fs are the absorption factor of the sample and fluorescein, respectively, with fi or s = 1-10^-Ai or s, wherein A = absorbance.
The same experiment was repeated three times (n = 3).

[3] = Absorption spectra / extinction coefficients; assay type: physicochemical
Protocol: Absorption spectra were recorded in a 1-cm path length cuvette (Hellma, 104.002B-QS) on a SPECORD®-205 spectrometer from Analytik Jena.
The Extinction coefficients of the flourophores fluorescein, 5-carboxyfluorescein (5-CF), 5-carboxy Oregon Green™ (5-COG), 5-amido N-propyl Oregon Green (5-POG; Example 2) and 5-amido N-propyl fluorescein (5-PFA; Example 3) were measured in 0.1 M NaOH solution at pH 12.7.
The extinction coefficients of the pro-fluorophores 5-thiourea N-propyl fluorescein diacetate (5-PFDAT; Example 5), 5-propyl carboxylate fluorescein diacetate (5-PFDAE; Example 8), 5-amido N-propyl fluorescein diacetate (5-PFDA; Example 7), 5-carboxy Oregon Green diacetate (5-COGDA; Example 9), 5-amido N-propyl Oregon Green diacetate (5-POGDA; Example 6) and 5-amido N-propyl Oregon Green acetoxymethylester (5-POGAM; Example 10) were measured in PBS buffer containing 0.6 % glutaraldehyde at pH 7.

[4] = Short-term chemical stability (spontaneous fluorescence generation) in aqueous buffer; assay type: physicochemical; details: for chemical stability in aqueous solution (in words): PBS solution containing 0.6 % glutaraldehyde, 37°C
Protocol: The short-term chemical stability of the pro-fluorophores of the present invention in an aqueous buffer was evaluated by fluorometric measurement analysis after several minutes of storage at 37°C.
Each pro-fluorophore (5-CFDA, 5-PFDAE, 5-PFDAT, 5-PFDA, 5-COGDA, 5-POGDA, 5-POGAM) was dissolved in dimethylsulfoxide (DMSO) in order to prepare a 10 mM stock solution. Short-term stability studies (0-60 min) were performed in the absence of light at 37°C. The pro-fluorophore stock solutions were diluted into a PBS solution containing 0.6 % of glutaraldehyde (pH ∼7). The pro-fuorophore final concentration was 15 µM. Samples were stored in a fluorescence grade quartz cuvette having a volume of 1 ml. Fluorescence emission spectra between 500 and 540 nm were recorded every 10 minutes. The excitation wavelength used was 488 nm. Fluorometric measurement were made with a FluoroLog®-3. (Horiba Jobin Yvon) spectrofluorometer equipped with sample stirring. The same experiment was repeated three times (n = 3).
Thus, the slope of the straight line corresponds to the speed of spontaneous fluorescence generation.

E. coli (ATCC 8739) [5] = experiment: Labeling of viable E. coli, fluorescence intensity by spectrofluorometer; assay type: cell-based, Escherichia coli
Protocol: as §2, §3
[…] Bacteria were incubated at 37 °C for 10 - 60 min with pro-fluorophore in darkness. After bacterial staining, they were washed and resuspended in 100 µl of PBS as described above.
as §5
Viable or dead E. coli (ATCC 8739) were incubated with different pro-fluorophores (10 - 15 µM) for 30 min at 37 °C. After washes, fluorescence of the E. coli suspension was measured with a FluoroLog®-3 spectrofluorometer (excitation wavelength: 488 nm, emission wavelength: 517 nm). Relative rates of viable E. coli fluorescence intensity were calculated by normalizing the difference of viable E. coli fluorescence intensity and dead E. coli fluorescence intensity with 5-CFDA staining.
Viable E. coli (ATCC 8739) were incubated with different pro-fluorophores (15 µM) at 37 °C for 10 - 60 min. After washes, E. coli fluorescence suspension was measured with FluoroLog®-3 spectrofluorometer (excitation wavelength: 488 nm, emission wavelength: 517 nm).

[6] = tested on: Bacillus subtilis (B. subtilis) (ATCC 6633); experiment: Bacteria staining test, fluorescence microscopy; assay type: cell-based; details: Fig. 3d, comparison between pro-fluorophores
Protocol: as §1, §2, §3, §4, §5

[7] = fluorophores, 0.1 M NaOH solution at pH 12.7
[8] = pro-fluorophores, PBS buffer containing 0.6 % glutaraldehyde at pH 7

| Structure (SMILES) | staining of viable E. coli (microscopy) (E. coli (ATCC 8739) [1]) | Φ (quantum yield) [2] | λem [2] [nm] | λex [2] [nm] | E (extinction coefficient) [3, 7] [M⁻¹ cm⁻¹] | λAbs max [3, 7] [nm] | E (extinction coefficient) [3, 8] [M⁻¹ cm⁻¹] | λAbs max [3, 8] [nm] | other results |
| --- | --- | --- | --- | --- | --- | --- | --- | --- | --- |
| CCCNC(=S)Nc1ccc2c(c1)C(=O)OC21c2ccc(OC(C)=O)cc2Oc2cc(OC(C)=O)ccc21 [Example 5-PFDAT, 3-oxo-5-(3-propylthioureido)-3H-spiro[isobenzofuran-1,0'-xanthene]-3',6'-diyl diacetate] | become fluorescent | – | – | – | – | – | – | – | fluorescence signal of dead E. coli (microscopy) (E. coli (ATCC 8739) [1]): become fluorescent |
| O=C(O)c1ccc2c(c1)C(=O)OC21c2cc(F)c(O)cc2Oc2cc(O)c(F)cc21 [Example 5-COG, 5-carboxy Oregon Green™, reference compound] | – | 0,912 ± 0.011 | 517 ± 0.4 | 491 ± 1.2 | 83136 ± 4452 | 493 | – | – | – |
| CCCOC(=O)c1ccc2c(c1)C(=O)OC21c2ccc(OC(C)=O)cc2Oc2cc(OC(C)=O)ccc21 [Example 5-PFDAE, 3-oxo-5-(propoxycarbonyl)-3H-spiro[isobenzofuran-1,9'-xanthene]-3',6'-diyl diacetate] | weaker green fluorescence, as compared to 5-CFDA staining | – | – | – | – | – | 7903 ± 761 | 295 | fluorescence signal of dead E. coli (microscopy) (E. coli (ATCC 8739) [1]): No fluorescence signal of dead bacteria was detected; chemical stability in aqueous solution (in words) [4]: remarkable stability |
| CCCNC(=O)c1ccc2c(c1)C(=O)OC21c2ccc(O)cc2Oc2cc(O)ccc21 [Example 5-PFA, 3',6'-dihydroxy-3-oxo-N-propyl-3H-spiro[isobenzofuran-1,9'-xanthene]-5-carboxamide] | – | 0,835 ± 0.002 | 518 ± 0.4 | 493 ± 0.3 | 73490 ± 8454 | 495 | – | – | – |
| CCCNC(=O)c1ccc2c(c1)C(=O)OC21c2ccc(OC(C)=O)cc2Oc2cc(OC(C)=O)ccc21 [Example 5-PFDA, 3-oxo-5-(propylcarbamoyl)-3H-spiro[isobenzofuran-1,9'-xanthene]-3',6'-diyl diacetate] | specifically stained with high fluorescence intensity | – | – | – | – | – | 9284 ± 758 | 291 | viable E. coli fluorescence intensity compared with 5-CFDA over incubation time (E. coli (ATCC 8739) [5]; 15 µM, 37 °C, incubation for 10 to 60 min, Figure 6): higher fluorescence intensity than incubation with 5-CFDA |
| CC(=O)Oc1ccc2c(c1)Oc1cc(OC(C)=O)ccc1C21OC(=O)c2cc(C(=O)O)ccc21 [Example 5-CFDA, 5-carboxyfluorescein diacetate, reference compound] | – | – | – | – | – | – | – | – | fluorescence intensity of the stained B. subtilis [6]: higher than the staining with 5-POGDA and 5-POGAM |
| O=C(O)c1ccc2c(c1)C(=O)OC21c2ccc(O)cc2Oc2cc(O)ccc21 [Example 5-CF, 5-carboxyfluorescein, reference compound] | – | 0.963 ± 0.004 | 517 ± 0.6 | 491 ± 0.7 | 76474 ± 4009 | 493 | – | – | – |
| CC(=O)Oc1cc2c(cc1F)C1(OC(=O)c3cc(C(=O)O)ccc31)c1cc(F)c(OC(C)=O)cc1O2 [Example 5-COGDA, 3',6'-diacetoxy-2',7'-difluoro-3-oxo-3H-spiro[isobenzofuran-1,9'-xanthene]-5-carboxylic acid] | specifically stained with high fluorescence intensity | – | – | – | – | – | 6979 ± 282 | 300 | viable E. coli fluorescence intensity relative to 5-CFDA staining (E. coli (ATCC 8739) [5]; 10 - 15 µM, 30 min at 37 °C, excitation 488 nm, emission 517 nm, Figure 5): between two and three times higher; chemical stability in aqueous solution (in words) [4]: less stable; relative speed of spontaneous fluorescence generation (spontaneous hydrolysis) ([4]; relative to 5-CFDA, 15 µM, PBS containing 0.6 % glutaraldehyde, pH ~7, 37°C, 0-60 min): eight times higher |
| CCCNC(=O)c1ccc2c(c1)C(=O)OC21c2cc(F)c(O)cc2Oc2cc(O)c(F)cc21 [Example 5-POG, 2',7'-difluoro-3',6'-dihydroxy-3-oxo-N-propyl-3H-spiro[isobenzofuran-1,9'-xanthene]-5-carboxamide] | – | 0,902 ± 0.013 | 518 ± 1.1 | 493 ± 0.6 | 74835 ± 4762 | 495 | – | – | – |
